In article PMC9289467, “A Novel Multifunctional 5,6-Dimethoxy-Indanone-Chalcone-Carbamate Hybrids Alleviates Cognitive Decline in Alzheimer’s Disease by Dual Inhibition of Acetylcholinesterase and Inflammation” (Frontiers in Aging Neuroscience, 2022):

Key:
AChE = target: T1, AChE (Mus musculus, UniProt P21836); test: Brain AChE activity, Amplex Red kit, APP/PS1 mice; assay type: in vivo; conditions: AP5 40 mg/kg intragastric once daily 5 months, vs APP/PS1 mice
T1 construct: The brain samples were weighed, homogenized in PBS solution, and centrifuged; from tissue; host or cells: mouse brain (cortex and hippocampus) of APP/PS1 mice dosed with AP5
Description: (§1) APP/PS1 mice of ages 6 months were randomly divided into vehicle (APP/PS1, n = 10) and treatment groups (AP5, n = 10), which were intragastrically administered with AP5 (40 mg/kg) once daily for consecutive 5 months. AP5 was dissolved in distilled water containing 1% sodium carboxymethyl cellulose.
The brain samples were weighed, homogenized in PBS solution, and centrifuged for 20 min at 25,000 g at 4°C. Amplex® Red acetylcholinesterase/acetylcholine assay kit (A12217, Thermo Fisher Scientific) was used to detect AChE activity and ACh levels in the supernatant in accordance with the manufacturer’s instructions.
(§2) Briefly, for ACh assay, the reactions were started by adding 100 µL of the Amplex Red reagent, HRP, choline oxidase, AChE working solution to each microplate well containing the controls and samples. For AChE assay, detection cocktail solution containing ACh, Amplex Red, choline oxidase and horseradish peroxidase was added toeach well. Assay plates were incubated at room temperature for 30 min and protected from light, followed by detecting fluorescence of resorufin (λex = 544 nm, λem = 590 nm) in a fluorescence microplate reader.
(§3) After deparaffinization and antigen retrieval, the sections were incubated with 0.3% hydrogen peroxide (H2O2) to inhibit endogenous peroxidase activity for 20 min and blocked by goat serum for 30 min at37°C. […]

Aβ40 oligomers = target: T2, Aβ40 oligomers (Homo sapiens, UniProt P05067); test: Aβ40 self-oligomerization dot blot (A11 antibody); assay type: biochemical; conditions: oligomer-specific antibody A11
T2 construct: purchased Invitrogen 03-136
Description: The formation of Aβ40 or Aβ42 oligomers was monitored by dot blot with oligomer-specific antibody. Briefly, the resulting Aβ film was dissolved in ddH2O to form a 100 μM solution, and then the oligomerization reaction ([Kayed et al., 2003]) was initiated in absence or presence of different concentrations of AP5. An aliquot (2 μL) of each solution was dripped on a nitrocellulose membrane. The membrane was blocked with 5% non-fat milk in TBS for 1 h, incubated with the anti-β amyloid (MOAB-2, NBP2-13075SS, Novus Biologicals, Colorado, United States), anti-amyloid oligomers (A11, NBP1-97930, Novus Biologicals), or anti-amyloid fibrils (OC, NBP1-97930, Novus Biologicals) antibodies overnight at 4°C. The membrane was then incubated using HRP-conjugated secondary antibodies at room temperature for 1 h and then developed with ECL.

NeuN, MAP2 = test: NeuN and MAP2 co-immunostaining and western blot, hippocampus; assay type: in vivo, APP/PS1 mice
Description: as §1
(§4) The fixed hemibrains were paraffin-embedded and sectioned in the coronal plane. The slices were deparaffinized with xylene and rehydrated by a series of gradient alcohols. Antigen retrieval through microwave boiling was performed with 10 mM sodium citrate solution at pH 6.0. The slices were cooled down to room temperature and then rinsed in PBS solution. Then the slices were incubated in 10% goat serum blocking solution for 1 h followed by primary antibodies overnight at 4°C. The next day, the slides were labeled with biotinylated or fluorescent secondary antibodies. Slices were washed three times with PBS before being mounted. Images were captured using a SpinSR10 scanner (Olympus, Tokyo, Japan).
Frozen hippocampus and cortex were homogenized in pre-cooling RIPA buffer (P0013B, Beyotime) supplemented with 1 mM phenylmethanesulfonyl fluoride (PMSF) and cocktail of protease and phosphatase inhibitors. […] The membranes were incubated with 5% fat-free milk blocking solution for 1 h at room temperature and then probed with primary antibodies overnight at 4°C. […] Densitometric analysis was performed using Quantity One software (Bio-Rad, Berkeley, CA, United States).
as §2, with “For AChE assay, detection cocktail solution containing ACh, Amplex Red, choline oxidase and horseradish peroxidase was added toeach well.” left out, “reader. […]” for “reader.”
(1:100, BAF2655, R&D, Minneapolis, MN, USA). […] For the quantification of Aβ plaque-associated microglia and […]

GFAP positive astrocytes = test: GFAP immunohistochemistry, Sholl analysis of astrocytes, APP/PS1 mice; assay type: in vivo; conditions: AP5 40 mg/kg once daily 5 months
Description: as §1
as §4, with “Japan). […]” for “Japan).”
as §3, with “at37°C. Slides were subsequently incubated overnight with specific primary antibodies: anti-Iba1(1:100, ab178847, Abcam, Cambridge, UK) or anti-GFAP (1:100, bs-0199R, Bioss) at4 °C.” for “at37°C.”

[1] = hippocampal CA1 pyramidal layer

T2 sequence (P05067 672-711 limits assumed): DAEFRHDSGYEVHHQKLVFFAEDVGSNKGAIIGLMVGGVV
T1 sequence (P21836 32-614): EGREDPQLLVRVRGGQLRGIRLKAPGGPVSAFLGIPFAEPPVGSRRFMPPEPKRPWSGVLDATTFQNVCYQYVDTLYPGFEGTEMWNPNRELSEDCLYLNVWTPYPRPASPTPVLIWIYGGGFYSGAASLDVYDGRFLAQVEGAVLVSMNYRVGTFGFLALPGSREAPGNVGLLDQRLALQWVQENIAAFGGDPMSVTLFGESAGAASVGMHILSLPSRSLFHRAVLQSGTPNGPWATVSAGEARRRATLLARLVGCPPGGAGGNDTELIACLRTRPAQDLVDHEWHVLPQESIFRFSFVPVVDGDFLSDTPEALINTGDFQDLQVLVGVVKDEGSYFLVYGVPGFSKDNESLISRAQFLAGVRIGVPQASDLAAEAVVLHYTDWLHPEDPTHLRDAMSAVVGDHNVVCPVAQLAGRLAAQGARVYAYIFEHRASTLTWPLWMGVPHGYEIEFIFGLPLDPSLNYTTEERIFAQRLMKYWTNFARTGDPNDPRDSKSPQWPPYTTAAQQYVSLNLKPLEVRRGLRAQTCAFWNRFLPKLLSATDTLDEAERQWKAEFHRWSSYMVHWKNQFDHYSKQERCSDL

Q: With `CCN(C)C(=O)Oc1cccc(/C=C2\Cc3cc(OC)c(OC)cc3C2=O)c1` [AP5, (E)-3-((5,6-dimethoxy-1-oxo-1,3-dihydro-2H-inden-2-ylidene)-methyl)phenylethyl(methyl)carbamate] as the compound, how does the “AChE activity in cortex and hippocampus” value (AChE) read?
A: decreased activity of AChE

Q: And the “levels of oligomeric Aβ40” value (Aβ40 oligomers)?
A: decreased the levels

Q: And the MAP2 signals (NeuN, MAP2; [1])?
A: restored

Q: What about the “average number of NeuN+ cells” value (NeuN, MAP2; [1]) of the same compound?
A: restored

Q: And the “protein expression of NeuN and MAP2” value (NeuN, MAP2; western blot, hippocampus)?
A: markedly increased

Q: And the “reactive phenotypes of astrocytes (ramification index, sum of intersects)” value (GFAP positive astrocytes)?
A: attenuated
